Test results published in ChEMBL document CHEMBL5291721, “A preclinical secondary pharmacology resource illuminates target-adverse drug reaction associations of marketed drugs” (Nat Commun, 2023).

Tests used:
[1] = molecular target: T1, Amine oxidase [flavin-containing] A (Homo sapiens, UniProt P21397); type: functional
T1 sequence (P21397 whole entry): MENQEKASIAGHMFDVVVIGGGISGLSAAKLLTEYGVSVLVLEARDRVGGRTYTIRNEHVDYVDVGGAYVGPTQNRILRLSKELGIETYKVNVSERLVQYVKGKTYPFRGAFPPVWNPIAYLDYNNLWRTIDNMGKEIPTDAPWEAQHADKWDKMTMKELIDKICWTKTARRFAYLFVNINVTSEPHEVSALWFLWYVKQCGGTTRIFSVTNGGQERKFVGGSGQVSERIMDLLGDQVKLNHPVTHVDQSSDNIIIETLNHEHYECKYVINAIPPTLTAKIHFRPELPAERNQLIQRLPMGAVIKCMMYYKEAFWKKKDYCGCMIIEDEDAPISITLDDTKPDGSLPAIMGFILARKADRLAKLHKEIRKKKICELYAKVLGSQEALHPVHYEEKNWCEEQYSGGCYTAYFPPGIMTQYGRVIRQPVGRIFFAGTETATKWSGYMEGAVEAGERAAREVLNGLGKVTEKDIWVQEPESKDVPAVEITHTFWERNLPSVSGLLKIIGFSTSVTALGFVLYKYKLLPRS

[2] = molecular target: T2, Adenosine receptor A3 (Homo sapiens, UniProt P0DMS8)
T2 sequence (P0DMS8 whole entry): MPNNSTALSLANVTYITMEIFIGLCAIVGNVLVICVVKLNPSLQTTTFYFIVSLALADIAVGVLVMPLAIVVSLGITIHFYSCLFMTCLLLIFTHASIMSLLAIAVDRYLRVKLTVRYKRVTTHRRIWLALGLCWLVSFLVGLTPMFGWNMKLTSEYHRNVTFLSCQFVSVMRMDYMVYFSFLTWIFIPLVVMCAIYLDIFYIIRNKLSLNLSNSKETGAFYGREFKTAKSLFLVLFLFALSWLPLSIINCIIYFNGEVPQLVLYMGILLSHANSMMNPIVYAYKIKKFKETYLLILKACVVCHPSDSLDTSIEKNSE

[3] = molecular target: T3, Alpha-1A adrenergic receptor (Homo sapiens, UniProt P35348); type: functional, cell-based
T3 sequence (P35348 whole entry): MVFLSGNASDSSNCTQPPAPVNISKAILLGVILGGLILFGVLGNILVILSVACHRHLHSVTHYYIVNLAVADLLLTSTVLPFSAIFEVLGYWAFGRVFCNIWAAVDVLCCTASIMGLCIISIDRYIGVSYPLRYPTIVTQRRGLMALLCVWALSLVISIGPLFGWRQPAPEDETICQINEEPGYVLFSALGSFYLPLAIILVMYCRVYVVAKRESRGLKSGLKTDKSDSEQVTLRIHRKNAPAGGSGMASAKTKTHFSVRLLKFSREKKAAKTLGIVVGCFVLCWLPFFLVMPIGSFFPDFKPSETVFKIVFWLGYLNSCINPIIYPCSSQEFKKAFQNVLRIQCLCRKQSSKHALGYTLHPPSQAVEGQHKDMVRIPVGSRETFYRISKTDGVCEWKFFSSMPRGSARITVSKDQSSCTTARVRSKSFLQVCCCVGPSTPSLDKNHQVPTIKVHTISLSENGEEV

[4] = molecular target: Sodium-dependent serotonin transporter (Homo sapiens, UniProt P31645)
[5] = molecular target: Acetylcholinesterase (Homo sapiens, UniProt P22303); type: functional
[6] = molecular target: Sodium-dependent dopamine transporter (Homo sapiens, UniProt Q01959)
[7] = molecular target: 5-hydroxytryptamine receptor 2B (Homo sapiens, UniProt P41595); type: functional, cell-based
[8] = molecular target: Prothrombin (Homo sapiens, UniProt P00734); type: functional
[9] = molecular target: Voltage-gated inwardly rectifying potassium channel KCNH2 (Homo sapiens, UniProt Q12809); type: functional; conditions: read-out: AC50
[10] = molecular target: cGMP-inhibited 3',5'-cyclic phosphodiesterase 3A (Homo sapiens, UniProt Q14432); type: functional
[11] = molecular target: T4, 5-hydroxytryptamine receptor 1A (Homo sapiens, UniProt P08908)
T4 sequence (P08908 whole entry): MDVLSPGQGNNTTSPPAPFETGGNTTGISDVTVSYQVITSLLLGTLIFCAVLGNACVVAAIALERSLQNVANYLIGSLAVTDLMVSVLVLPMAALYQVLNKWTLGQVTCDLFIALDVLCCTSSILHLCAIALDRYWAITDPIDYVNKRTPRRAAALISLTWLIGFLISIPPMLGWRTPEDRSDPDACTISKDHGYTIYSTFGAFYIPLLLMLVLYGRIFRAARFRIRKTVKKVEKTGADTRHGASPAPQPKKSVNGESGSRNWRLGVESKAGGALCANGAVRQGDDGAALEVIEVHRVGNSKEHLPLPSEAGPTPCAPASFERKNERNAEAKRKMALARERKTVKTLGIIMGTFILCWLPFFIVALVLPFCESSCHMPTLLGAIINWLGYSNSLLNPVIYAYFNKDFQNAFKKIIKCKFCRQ

[12] = molecular target: Mu-type opioid receptor (Homo sapiens, UniProt P35372)
[13] = molecular target: T5, Thromboxane A2 receptor (Homo sapiens, UniProt P21731); type: functional, cell-based
T5 sequence (P21731 whole entry): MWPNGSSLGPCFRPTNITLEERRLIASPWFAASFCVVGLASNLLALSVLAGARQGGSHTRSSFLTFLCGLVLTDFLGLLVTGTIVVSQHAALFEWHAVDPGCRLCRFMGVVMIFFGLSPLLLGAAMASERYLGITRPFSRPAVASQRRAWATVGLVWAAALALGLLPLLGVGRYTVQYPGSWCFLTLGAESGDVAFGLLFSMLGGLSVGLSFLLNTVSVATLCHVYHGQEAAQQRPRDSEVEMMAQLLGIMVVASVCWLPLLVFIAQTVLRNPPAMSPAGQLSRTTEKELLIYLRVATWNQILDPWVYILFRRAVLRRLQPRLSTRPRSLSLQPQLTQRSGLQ

[14] = molecular target: D(3) dopamine receptor (Homo sapiens, UniProt P35462)
[15] = molecular target: Prostaglandin G/H synthase 1 (Homo sapiens, UniProt P23219); type: functional
Also: assay procedure not described here.

Sequence of Voltage-gated inwardly rectifying potassium channel KCNH2 (Q12809 whole entry): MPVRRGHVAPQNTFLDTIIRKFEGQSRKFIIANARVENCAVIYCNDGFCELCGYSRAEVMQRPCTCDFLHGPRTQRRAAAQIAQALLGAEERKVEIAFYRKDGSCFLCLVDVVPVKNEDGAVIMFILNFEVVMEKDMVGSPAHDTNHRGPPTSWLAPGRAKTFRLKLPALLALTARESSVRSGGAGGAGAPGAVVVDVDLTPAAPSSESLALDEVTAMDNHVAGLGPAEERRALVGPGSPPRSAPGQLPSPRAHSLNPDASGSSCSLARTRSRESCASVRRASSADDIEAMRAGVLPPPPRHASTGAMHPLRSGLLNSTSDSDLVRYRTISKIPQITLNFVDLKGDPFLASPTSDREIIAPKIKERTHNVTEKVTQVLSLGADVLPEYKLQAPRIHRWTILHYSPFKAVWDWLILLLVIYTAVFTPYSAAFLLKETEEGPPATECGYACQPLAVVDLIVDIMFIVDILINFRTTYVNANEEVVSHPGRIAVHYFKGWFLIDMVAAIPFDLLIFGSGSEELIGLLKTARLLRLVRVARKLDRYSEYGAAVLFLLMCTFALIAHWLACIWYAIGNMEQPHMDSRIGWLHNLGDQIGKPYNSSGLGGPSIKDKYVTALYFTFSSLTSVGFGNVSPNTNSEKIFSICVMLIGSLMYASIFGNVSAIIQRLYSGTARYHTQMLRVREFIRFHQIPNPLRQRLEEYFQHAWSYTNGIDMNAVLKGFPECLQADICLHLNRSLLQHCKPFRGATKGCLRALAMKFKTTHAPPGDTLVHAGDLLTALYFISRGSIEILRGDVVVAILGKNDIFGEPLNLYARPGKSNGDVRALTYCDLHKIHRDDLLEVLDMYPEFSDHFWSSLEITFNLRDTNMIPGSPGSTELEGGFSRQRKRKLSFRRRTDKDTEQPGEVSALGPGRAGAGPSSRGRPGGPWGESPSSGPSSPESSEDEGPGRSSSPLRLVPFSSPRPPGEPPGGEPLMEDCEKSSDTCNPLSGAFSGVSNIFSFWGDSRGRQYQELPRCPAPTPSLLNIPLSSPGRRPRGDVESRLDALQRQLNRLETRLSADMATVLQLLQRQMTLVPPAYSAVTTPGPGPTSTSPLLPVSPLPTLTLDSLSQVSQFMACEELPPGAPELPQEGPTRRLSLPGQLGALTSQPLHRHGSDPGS
Sequence of Prostaglandin G/H synthase 1 (P23219 whole entry): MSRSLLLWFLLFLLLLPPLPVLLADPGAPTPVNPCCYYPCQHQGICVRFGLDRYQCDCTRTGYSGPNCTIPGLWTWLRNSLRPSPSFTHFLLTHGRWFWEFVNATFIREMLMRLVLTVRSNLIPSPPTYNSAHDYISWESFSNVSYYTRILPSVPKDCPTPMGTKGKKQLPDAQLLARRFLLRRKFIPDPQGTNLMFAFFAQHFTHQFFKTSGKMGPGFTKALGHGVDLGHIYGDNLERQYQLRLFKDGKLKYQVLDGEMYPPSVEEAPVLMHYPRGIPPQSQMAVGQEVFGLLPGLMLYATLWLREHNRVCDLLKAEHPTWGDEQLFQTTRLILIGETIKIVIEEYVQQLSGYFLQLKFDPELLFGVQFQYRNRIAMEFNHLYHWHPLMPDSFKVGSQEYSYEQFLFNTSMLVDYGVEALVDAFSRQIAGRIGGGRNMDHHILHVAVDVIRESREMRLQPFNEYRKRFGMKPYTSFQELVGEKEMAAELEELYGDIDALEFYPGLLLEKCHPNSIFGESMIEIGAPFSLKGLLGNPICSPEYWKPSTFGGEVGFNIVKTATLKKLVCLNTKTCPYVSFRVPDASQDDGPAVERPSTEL
Sequence of 5-hydroxytryptamine receptor 2B (P41595 whole entry): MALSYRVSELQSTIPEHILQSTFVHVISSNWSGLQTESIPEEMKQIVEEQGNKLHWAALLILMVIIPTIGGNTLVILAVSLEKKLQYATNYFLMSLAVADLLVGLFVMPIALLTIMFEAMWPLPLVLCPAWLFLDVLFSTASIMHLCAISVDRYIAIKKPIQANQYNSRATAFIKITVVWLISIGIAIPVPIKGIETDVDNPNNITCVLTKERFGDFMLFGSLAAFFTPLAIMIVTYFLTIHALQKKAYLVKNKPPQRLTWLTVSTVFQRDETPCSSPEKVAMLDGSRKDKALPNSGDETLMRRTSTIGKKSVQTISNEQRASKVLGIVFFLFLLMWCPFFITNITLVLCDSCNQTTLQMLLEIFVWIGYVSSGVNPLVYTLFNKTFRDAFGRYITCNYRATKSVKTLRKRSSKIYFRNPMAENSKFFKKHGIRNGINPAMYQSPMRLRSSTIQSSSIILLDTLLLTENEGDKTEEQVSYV
Sequence of cGMP-inhibited 3',5'-cyclic phosphodiesterase 3A (Q14432 whole entry): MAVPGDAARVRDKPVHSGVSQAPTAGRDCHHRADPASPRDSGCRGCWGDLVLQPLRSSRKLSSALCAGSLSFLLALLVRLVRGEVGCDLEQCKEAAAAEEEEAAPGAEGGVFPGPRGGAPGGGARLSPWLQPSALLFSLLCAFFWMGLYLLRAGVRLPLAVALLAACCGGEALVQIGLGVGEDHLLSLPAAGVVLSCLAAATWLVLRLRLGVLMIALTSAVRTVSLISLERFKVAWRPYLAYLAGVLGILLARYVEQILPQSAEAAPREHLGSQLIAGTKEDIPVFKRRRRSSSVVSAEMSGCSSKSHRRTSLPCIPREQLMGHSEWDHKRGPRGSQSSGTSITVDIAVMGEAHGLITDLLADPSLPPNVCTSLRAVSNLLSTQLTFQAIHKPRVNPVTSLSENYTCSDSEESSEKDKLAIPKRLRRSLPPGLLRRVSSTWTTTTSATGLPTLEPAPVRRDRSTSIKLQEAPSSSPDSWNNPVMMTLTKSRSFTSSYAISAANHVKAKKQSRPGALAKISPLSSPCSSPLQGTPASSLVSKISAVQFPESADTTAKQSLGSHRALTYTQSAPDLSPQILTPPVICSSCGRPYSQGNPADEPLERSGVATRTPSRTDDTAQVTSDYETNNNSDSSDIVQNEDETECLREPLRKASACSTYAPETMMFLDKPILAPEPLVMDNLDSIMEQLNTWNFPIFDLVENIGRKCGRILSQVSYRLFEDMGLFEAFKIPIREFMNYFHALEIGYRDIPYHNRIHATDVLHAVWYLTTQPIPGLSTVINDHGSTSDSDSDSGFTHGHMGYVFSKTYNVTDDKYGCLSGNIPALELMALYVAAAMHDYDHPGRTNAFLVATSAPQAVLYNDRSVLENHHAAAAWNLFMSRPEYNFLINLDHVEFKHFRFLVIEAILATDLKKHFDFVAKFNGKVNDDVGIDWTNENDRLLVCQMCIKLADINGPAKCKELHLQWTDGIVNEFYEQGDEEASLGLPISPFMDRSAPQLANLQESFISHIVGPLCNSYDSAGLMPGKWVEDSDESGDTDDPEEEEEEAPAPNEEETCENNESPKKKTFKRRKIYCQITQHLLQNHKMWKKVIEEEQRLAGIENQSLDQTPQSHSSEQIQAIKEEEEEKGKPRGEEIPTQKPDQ
Sequence of Mu-type opioid receptor (P35372 whole entry): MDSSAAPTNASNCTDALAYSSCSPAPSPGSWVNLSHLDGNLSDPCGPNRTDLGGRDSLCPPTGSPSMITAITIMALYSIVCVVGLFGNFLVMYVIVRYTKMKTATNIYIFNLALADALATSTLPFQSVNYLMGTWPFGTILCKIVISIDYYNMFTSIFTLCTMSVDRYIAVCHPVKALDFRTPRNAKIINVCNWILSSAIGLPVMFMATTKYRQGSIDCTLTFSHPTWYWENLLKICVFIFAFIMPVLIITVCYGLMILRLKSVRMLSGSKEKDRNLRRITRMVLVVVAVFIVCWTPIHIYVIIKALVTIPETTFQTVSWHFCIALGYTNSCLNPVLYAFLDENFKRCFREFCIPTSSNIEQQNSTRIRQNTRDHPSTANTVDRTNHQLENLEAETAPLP
Sequence of Sodium-dependent dopamine transporter (Q01959 whole entry): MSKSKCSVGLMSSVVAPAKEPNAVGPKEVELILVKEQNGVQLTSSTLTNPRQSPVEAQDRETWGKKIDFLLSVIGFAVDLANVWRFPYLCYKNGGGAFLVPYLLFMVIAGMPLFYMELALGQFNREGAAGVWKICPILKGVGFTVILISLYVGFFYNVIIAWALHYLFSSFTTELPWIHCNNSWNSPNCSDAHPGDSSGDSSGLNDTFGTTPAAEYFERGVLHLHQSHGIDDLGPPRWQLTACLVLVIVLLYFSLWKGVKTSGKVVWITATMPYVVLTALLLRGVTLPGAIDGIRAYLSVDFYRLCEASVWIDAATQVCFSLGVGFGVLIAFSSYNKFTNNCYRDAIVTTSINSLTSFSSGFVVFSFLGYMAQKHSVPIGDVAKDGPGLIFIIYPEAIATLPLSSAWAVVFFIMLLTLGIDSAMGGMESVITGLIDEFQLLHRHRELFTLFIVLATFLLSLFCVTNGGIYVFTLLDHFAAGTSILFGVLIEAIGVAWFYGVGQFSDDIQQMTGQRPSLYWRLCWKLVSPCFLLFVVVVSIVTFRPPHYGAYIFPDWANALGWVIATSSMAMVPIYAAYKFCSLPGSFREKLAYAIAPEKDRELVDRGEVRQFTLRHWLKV
Sequence of Sodium-dependent serotonin transporter (P31645 whole entry): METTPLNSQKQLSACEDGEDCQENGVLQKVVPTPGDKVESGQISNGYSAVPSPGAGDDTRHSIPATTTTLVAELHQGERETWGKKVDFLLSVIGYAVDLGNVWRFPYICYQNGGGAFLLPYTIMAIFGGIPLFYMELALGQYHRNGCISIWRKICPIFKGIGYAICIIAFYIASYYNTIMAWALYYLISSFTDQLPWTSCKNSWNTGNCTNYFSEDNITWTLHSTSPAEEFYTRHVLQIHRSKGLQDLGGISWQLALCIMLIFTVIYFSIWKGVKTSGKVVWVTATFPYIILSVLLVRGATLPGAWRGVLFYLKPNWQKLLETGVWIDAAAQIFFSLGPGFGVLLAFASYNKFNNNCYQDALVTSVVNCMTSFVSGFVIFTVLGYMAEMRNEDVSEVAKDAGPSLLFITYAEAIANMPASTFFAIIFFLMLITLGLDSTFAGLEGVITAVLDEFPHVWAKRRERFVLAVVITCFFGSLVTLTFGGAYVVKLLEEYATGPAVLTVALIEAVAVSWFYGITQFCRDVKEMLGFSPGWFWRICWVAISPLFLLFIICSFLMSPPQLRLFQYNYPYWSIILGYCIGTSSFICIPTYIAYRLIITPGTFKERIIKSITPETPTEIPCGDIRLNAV

Row | SMILES | AC50 [1] | AC50 [2] | AC50 [3] | AC50 [4] | AC50 [5] | AC50 [6] | AC50 [7] | AC50 [8] | AC50 [9] | AC50 [10] | AC50 [11] | AC50 [12] | AC50 [13] | AC50 [14] | AC50 [15]
1 | Cc1cnc(C(=O)O)c[n+]1[O-] [ACIPIMOX] | > 30 µM | > 30 µM | > 30 µM | > 30 µM | > 30 µM | > 30 µM | > 30 µM | > 30 µM | > 30 µM | > 30 µM | > 30 µM | > 30 µM | > 30 µM | > 30 µM | > 30 µM
2 | Nc1ccc(C(=O)NCC(=O)O)cc1 [AMINOHIPPURIC ACID] | > 30 µM | > 30 µM | > 30 µM | > 30 µM | > 30 µM | > 30 µM | > 30 µM | > 30 µM | > 30 µM | > 30 µM | > 30 µM | > 30 µM | > 30 µM | > 30 µM | > 30 µM
3 | O=c1[nH]c(=O)n([C@H]2C[C@H](O)[C@@H](CO)O2)cc1/C=C/Br [BRIVUDINE] | > 30 µM | > 30 µM | > 30 µM | > 30 µM | > 30 µM | > 30 µM | > 30 µM | > 30 µM | > 30 µM | > 30 µM | > 30 µM | > 30 µM | > 30 µM | > 30 µM | > 30 µM
4 | Nc1ccn(C[C@@H](CO)OCP(=O)(O)O)c(=O)n1 [CIDOFOVIR] | > 30 µM | > 30 µM | > 30 µM | > 30 µM | > 30 µM | > 30 µM | > 30 µM | > 30 µM | > 30 µM | > 30 µM | > 30 µM | > 30 µM | > 30 µM | > 30 µM | > 30 µM
5 | CCCCC(=O)O[C@H]1CC[C@H]2[C@@H]3CCc4cc(O)ccc4[C@H]3CC[C@]12C [ESTRADIOL VALERATE] | > 30 µM | 6.74 µM | > 30 µM | > 30 µM | > 30 µM | > 30 µM | > 30 µM | > 30 µM | > 30 µM | 23.9 µM | > 30 µM | > 30 µM | > 30 µM | > 30 µM | 7.05 µM
6 | CCOc1ccc(Cc2nccc3cc(OCC)c(OCC)cc23)cc1OCC [ETHAVERINE] | > 30 µM | 3.11 µM | 9.55 µM | > 30 µM | > 30 µM | > 30 µM | > 30 µM | > 30 µM | 13 µM | 3.69 µM | > 30 µM | > 30 µM | > 30 µM | 25.5 µM | > 30 µM
7 | CC(C)(Oc1ccc(C(=O)c2ccc(Cl)cc2)cc1)C(=O)O [FENOFIBRIC ACID] | > 30 µM | > 30 µM | > 30 µM | > 30 µM | > 30 µM | > 30 µM | > 30 µM | > 30 µM | > 30 µM | > 30 µM | > 30 µM | > 30 µM | > 30 µM | > 30 µM | > 30 µM
8 | CC(C)NC[C@H](O)COc1ccc(CCOCC2CC2)cc1 [LEVOBETAXOLOL] | > 30 µM | > 30 µM | > 30 µM | > 30 µM | > 30 µM | > 30 µM | > 30 µM | > 30 µM | > 30 µM | > 30 µM | > 30 µM | > 30 µM | > 30 µM | > 30 µM | > 30 µM
9 | Cc1cccc(C)c1NC(=O)CN(CC(=O)O)CC(=O)O [LIDOFENIN] | > 30 µM | > 30 µM | > 30 µM | > 30 µM | > 30 µM | > 30 µM | > 30 µM | > 30 µM | > 30 µM | > 30 µM | > 30 µM | > 30 µM | > 30 µM | > 30 µM | > 30 µM
10 | CN1CCc2c(c3ccccc3n2Cc2ccccc2)C1 [MEBHYDROLIN] | > 30 µM | > 30 µM | 1.07 µM | 28.5 µM | > 30 µM | 0.334 µM | > 30 µM | > 30 µM | 1 µM | > 30 µM | 1.04 µM | 18.7 µM | > 30 µM | 1.19 µM | > 30 µM
11 | CC(O)(CC(=O)O)CC(=O)O [MEGLUTOL] | > 30 µM | > 30 µM | 18 µM | > 30 µM | > 30 µM | > 30 µM | > 30 µM | > 30 µM | > 30 µM | > 30 µM | > 30 µM | > 30 µM | > 30 µM | > 30 µM | > 30 µM
12 | CC(C)=CCC/C(C)=C/CC/C(C)=C/CC/C(C)=C/CC1=C(C)C(=O)c2ccccc2C1=O [MENATETRENONE] | > 30 µM | 4.72 µM | > 30 µM | > 30 µM | > 30 µM | > 30 µM | > 30 µM | > 30 µM | > 30 µM | 5.09 µM | 22.5 µM | > 30 µM | > 30 µM | 2.91 µM | 13.5 µM
13 | CN1CCCC(CC2c3ccccc3Sc3ccccc32)C1 (stereo not given) [METHIXENE] | > 30 µM | > 30 µM | 0.586 µM | 18.2 µM | > 30 µM | > 30 µM | > 30 µM | > 30 µM | 3.1 µM | > 30 µM | 1.9 µM | 13.9 µM | 25 µM | 0.742 µM | > 30 µM
